Laboratory results reported in publication PMC7027535 (Journal of Pineal Research, 2020).

Target: T1, Notum (Homo sapiens, UniProt Q6P988, C330S)
T1 sequence (Q6P988 81-451 C330S): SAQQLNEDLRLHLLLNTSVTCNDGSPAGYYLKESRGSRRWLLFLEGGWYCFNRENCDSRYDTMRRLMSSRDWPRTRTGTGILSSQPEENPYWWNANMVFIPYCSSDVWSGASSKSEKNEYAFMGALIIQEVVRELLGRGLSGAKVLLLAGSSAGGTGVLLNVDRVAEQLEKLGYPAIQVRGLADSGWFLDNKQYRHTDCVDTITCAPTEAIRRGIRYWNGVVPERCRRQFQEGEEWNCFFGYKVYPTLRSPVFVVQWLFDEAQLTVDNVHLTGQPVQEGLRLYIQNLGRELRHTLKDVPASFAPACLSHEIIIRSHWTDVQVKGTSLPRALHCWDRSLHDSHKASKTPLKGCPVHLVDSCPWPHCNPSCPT
Assay: X-ray crystal structure ([…] Å); thermal shift (Tm […] to […] °C); OPTS enzyme inhibition IC50
Assay type: biochemical

In the case of `CC(=O)NCCc1c[nH]c2ccc(O)cc12` [ASE, N‐acetylserotonin], the IC50 is reported as 94 µM.
